Target: Substance-P receptor (Homo sapiens, UniProt P25103)
Assay: Tested for the inhibitory potency against Neurokinin 1 NK1 receptor

Chain of Substance-P receptor (P25103 whole entry): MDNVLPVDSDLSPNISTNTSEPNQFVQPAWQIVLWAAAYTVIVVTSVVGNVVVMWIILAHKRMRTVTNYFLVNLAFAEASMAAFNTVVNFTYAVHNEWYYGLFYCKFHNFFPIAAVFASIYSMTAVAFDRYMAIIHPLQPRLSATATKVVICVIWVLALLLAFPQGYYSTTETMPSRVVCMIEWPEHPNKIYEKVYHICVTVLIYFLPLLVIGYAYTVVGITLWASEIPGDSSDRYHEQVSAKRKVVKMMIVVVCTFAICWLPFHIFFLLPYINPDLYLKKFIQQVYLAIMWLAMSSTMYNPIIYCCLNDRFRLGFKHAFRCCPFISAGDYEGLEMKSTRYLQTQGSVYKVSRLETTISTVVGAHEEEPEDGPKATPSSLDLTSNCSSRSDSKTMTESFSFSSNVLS

IC50 [nM] | SMILES
1000 | Cc1cc(C)cc(C(=O)N2C3C=C(c4ccccc4)C2CC(NCc2ccnc4ccccc24)C3)c1 (racemic)
44 | Cc1cc(C)cc(C(=O)N2C3CC(NCc4ccnc5ccccc45)CC2C(c2ccccc2)C3)c1 (racemic; form 1)
640 | Cc1cc(C)cc(C(=O)N2C3CC(NCc4ccnc5ccccc45)CC2C(c2ccccc2)C3)c1 (racemic; form 2)

— ChEMBL document CHEMBL1150466, “Studies on the active conformation of NK1 antagonist CGP 49823. Part 1. Synthesis of conformationally restricted analogs” (Bioorg Med Chem Lett, 1997)
